From patent US20210116454A1, “METHODS FOR TREATING A HEMATOLOGICAL CANCER AND THE USE OF COMPANION BIOMARKERS FOR 2-(2,6-DIOXOPIPERIDIN-3-YL)-4-((2-FLUORO-4-((3-MORPHOLINOAZETIDIN-1-YL)METHYL)BENZYL)AMINO)ISOINDOLINE-1,3-DIONE” (CELGENE CORPORATION, priority 2019, published 2021) come the findings set out here.

Test [1] relates to SU-DHL-16. In words: 5-day viable cell number and apoptosis (7-AAD exclusion/Annexin V flow cytometry). It is filed as cell-based. Particulars: Homo sapiens; SU-DHL-16 cells (Table 3); read-out: IC50. From the text: (§1) The DLBCL panel includes seven cell lines classified as activated B-cell (ABC) subtype, thirteen cell lines classified as the germinal center B-cell (GCB) subtype, and three cell lines classified as primary mediastinal B-cell lymphoma (PMBL). […] The translocation of MYC, BCL6, or BCL2 to an IG locus usually leads to high levels of mRNA and protein due to the active transcription driven by a constitutively active IG promoter. […] Expressions of CRBN protein and known substrates, Ikaros, Aiolos, and ZFP91 were also evaluated (FIG. 1, panels B and C).
(§2) The panel of cell lines were treated with increasing doses of compounds for five days, at which time the number of viable cells was measured and the amount of apoptosis was determined by 7-AAD exclusion and Annexin V staining using flow cytometry.
For orientation: In flow cytometry, cells or beads pass a laser one at a time.

Test [2] concerns WSU-DLCL2. Described as above. It is filed as cell-based. Particulars: Homo sapiens, WSUDLCL2; WSU-DLCL2 cells (Table 3); read-out: IC50.
From the text: as §1, §2

In test [3] the test system is Pfeiffer. The description is as above. It is filed as cell-based. Particulars: Homo sapiens; Pfeiffer cells (Table 3).
From the text: as §1, §2

Test [4] deals with SU-DHL-10. The test is described as above. It is filed as cell-based. The note with it: Homo sapiens, SU-DHL10; SU-DHL-10 cells (Table 3); read-out: IC50.
From the text: as §1, §2

Test [5] deals with U2932. The test is described as above. It counts as cell-based. The note with it: Homo sapiens; U2932 cells (Table 3); read-out: IC50.
From the text: as §1, §2

For test [6], the system named is DB. Described as above. It is filed as cell-based. The note with it: Homo sapiens; DB cells (Table 3).
From the text: as §1, §2

Test [7] has as its system SU-DHL-4. The test is described as above. It is filed as cell-based. The note with it: Homo sapiens; SU-DHL-4 cells (Table 3); read-out: IC50.
From the text: as §1, §2

Test [8] relates to RC-K8. The test is described as above. Particulars: Homo sapiens, RCK8; RC-K8 cells (Table 3); read-out: IC50. It counts as cell-based.
From the text: as §1, §2

For test [9], the system named is KARPAS-1106P. The description is as above. It counts as cell-based. Particulars: Homo sapiens; KARPAS-1106P cells (Table 3); read-out: IC50.
From the text: as §1, §2

For test [10], the system named is OCI-LY-7. The description is as above. It counts as cell-based. The note with it: Homo sapiens, OCI-Ly7; OCI-LY-7 cells (Table 3); read-out: IC50.
From the text: as §1, §2

The test system of test [11] is SU-DHL-2. The test is described as above. The note with it: Homo sapiens; SU-DHL-2 cells (Table 3); read-out: IC50. It is filed as cell-based.
From the text: as §1, §2

Test [12] deals with HT. Described as above. Particulars: Homo sapiens; HT cells (Table 3); read-out: IC50. It is filed as cell-based.
From the text: as §1, §2

Test [13] concerns SU-DHL-8. The test is described as above. It counts as cell-based. Particulars: Homo sapiens; SU-DHL-8 cells (Table 3); read-out: IC50.
From the text: as §1, §2

Test [14] concerns OCI-Ly10. The description is as above. It counts as cell-based. The note with it: Homo sapiens; OCI-Ly10 cells (Table 3); read-out: IC50.
From the text: as §1, §2

Test [15] deals with Farage. The description is as above. The note with it: Farage cells (Table 3); read-out: IC50. It is filed as cell-based.
From the text: as §1, §2

For test [16], the system named is KARPAS-422. The description is as above. Particulars: Homo sapiens; KARPAS-422 cells (Table 3); read-out: IC50. It is filed as cell-based.
From the text: as §1, §2

Test [17] deals with RIVA. The test is described as above. It is filed as cell-based. The note with it: RIVA cells (Table 3); read-out: IC50.
From the text: as §1, §2

Test [18] deals with SU-DHL-4. In words: CellTiter-Glo (CTG) antiproliferative assay, 5-day. It is filed as cell-based. Particulars: for antiproliferative activity (in words): SU-DHL-4, CellTiter-Glo. The protocol:
To evaluate the activity of both Compound 1 and Compound 2 in DLBCL cells, a CellTiter-Glo (CTG) assay was performed to measure the antiproliferative activity.
On the technique in general: In ATP-based viability assays light output follows the ATP content of the culture.

In test [19] the target is T1, ZFP91 (Homo sapiens, UniProt Q96JP5+Q96SW2).
T1 construct: expressed in transfected cells; host or cells: DF15 cells
In words: ePL-tagged substrate degradation kinetics in DF15 cells (enantiomer comparison). Also noted: ZFP91 Y-constant: scale not given here. Particulars: for DC50: read-out: ZFP91 EC50. It is filed as cell-based. The protocol: (§3) In a second assay, DF15 cell lines expressing ePL-tagged target protein substrates were used as a model system to monitor protein degradation at 0.75, 1, 1.5, 3, 4, and 24 hours over a concentration range from 1 pM to 10 μM. The proteins evaluated were Ikaros (FIG. 17), Aiolos, and ZFP91. Compound 1 and Compound 2 were both able to degrade the substrate proteins at all time points (Table 9). In a further assay, additional time points were included to monitor the effect of treatment with Compound 1 and Compound 2.
(§4) The depth of substrate protein degradation described by the Y-constant was also measured in this assay against a negative control luciferase inhibitor (CC1071297, Y-constant=0).

The target in test [20] is T2, Aiolos (Homo sapiens, UniProt Q96SW2+Q9UKT9).
T2 construct: expressed in transfected cells; host or cells: DF15 cells
The description is as above. It is filed as cell-based. Details: Aiolos Y-constant: scale not given here. Particulars: for DC50: read-out: Aiolos EC50. The protocol: as §3, §4

The target in test [21] is Ikaros (Homo sapiens, UniProt Q13422+Q96SW2). The test is described as above. It is filed as cell-based. Also noted: expressed in transfected cells; host or cells: DF15 cells; Ikaros Y-constant: scale not given here. Particulars: for DC50: read-out: Ikaros EC50. The protocol:
as §3, §4

The test system of test [22] is SU-DHL-2 cells. As to the kind of experiment: Western blot of substrate degradation by each enantiomer, short time-course. It is filed as cell-based. The note with it: SU-DHL-2, higher concentrations and longer exposure. The protocol:
Pure samples of each enantiomer were tested for cellular degradation of substrate proteins measured over a short time-course (FIG. 16). SU-DHL-2 cells were treated for 1, 2, and 6 hours with vehicle control (0.1% DMSO), Compound 1 (1, 10, 100 nM), or Compound 2 (1, 10, 100 nM). Western blot analysis was used to evaluate the extent of degradation of the protein substrates Aiolos, Ikaros, and ZFP91. Compound 1 inhibited Aiolos, Ikaros, and ZFP91 in as early as 1 hour of treatment with as little as 1 nM.

Test [23] deals with cereblon (CRBN) (Homo sapiens, UniProt Q96SW2). In words: Cereblon binding TR-FRET ligand competition assay. The note with it: 10 to 20 minutes, n=5. The protocol:
To investigate whether Compound 1 and its R-enantiomer Compound 2 could bind to cereblon, a short duration (10 to 20 minutes) ligand competition assay was used.
In general terms: TR-FRET usually uses a lanthanide donor and a delayed reading to cut background.

By IC50 is commonly meant the midpoint of a concentration-inhibition curve.

Like-named read-outs stand apart in the source and are kept apart here.

On to `CC1(C)CCC(CN2CCN(c3ccc(C(=O)NS(=O)(=O)c4ccc(NCC5CCOCC5)c([N+](=O)[O-])c4)c(Oc4cnc5[nH]ccc5c4)c3)CC2)=C(c2ccc(Cl)cc2)C1` [Venetoclax, 4-(4-{[2-(4-chlorophenyl)-4,4-dimethylcyclohex-1-en-1-yl]methyl}piperazin-1-yl)-N-({3-nitro-4-[(tetrahydro-2H-pyran-4ylmethyl)amino]phenyl}sulfonyl)-2-(1H-pyrrolo[2,3-b]pyridin-5-yloxy)benzamide, reference compound], for which the IC50 in test [1] is 21 µM; in [2], 215 µM; in [3], 432 µM; in test [4], 454 µM; in test [5], 230 µM; in test [6], 82 µM. Moreover, the half-inhibitory concentration (IC50) in test [7] worked out at 145 µM; in test [8], 609 µM; in [9], 200 µM; in test [10] it was 1.01 mM; in test [11] it was 355 µM; in [12], 644 µM. In addition, the half-maximal inhibitory concentration (IC50) in test [13] worked out at 548 µM; in test [14], 200 µM; in test [15], 560 µM; in test [16] it was 75 µM; in [17] it was 5 µM.
Consider `O=C1CCC(N2C(=O)c3cccc(NCc4ccc(CN5CC(N6CCOCC6)C5)cc4F)c3C2=O)C(=O)N1` (racemic) [Compound 3, 2-(2,6-Dioxopiperidin-3-yl)-4-((2-fluoro-4-((3-morpholinoazetidin-1-yl)methyl)benzyl)amino)isoindoline-1,3-dione], for which the “antiproliferative activity (in words)” value in [18] is listed as “Potent antiproliferative activity”.
Regarding `O=C1CC[C@@H](N2C(=O)c3cccc(NCc4ccc(CN5CC(N6CCOCC6)C5)cc4F)c3C2=O)C(=O)N1` [Compound 2, (R)-2-(2,6-dioxopiperidin-3-yl)-4-((2-fluoro-4-((3-morpholinoazetidin-1-yl)methyl)benzyl)amino)isoindoline-1,3-dione], the “ZFP91 Y-constant” value in test [19] (0.75 hours) came to 41; in test [19] (1 hour) it was 22; in [19] (1.5 hours) it was 10; in test [19] (3 hours), 4.6; in [19] (4 hours), 4.1; in [19] (24 hours) it was 2.5. Further, the DC50 in test [19] (0.75 hours) turned out to be 29 nM; in test [19] (1 hour), 25 nM; in test [19] (1.5 hours), 16 nM; in test [19] (3 hours), 4.5 nM; in [19] (4 hours), 2.6 nM; in test [19] (24 hours), 0.35 nM. In addition, the DC50 in test [20] (0.75 hours) was found to be 38 nM; in test [20] (1 hour) it was 24 nM; in test [20] (1.5 hours), 17 nM; in test [20] (3 hours), 10 nM; in test [20] (4 hours), 7.3 nM; in [20] (24 hours) it was 5.3 nM. The DC50 in test [21] (0.75 hours) is 39.7 nM; in test [21] (1 hour), 27 nM; in test [21] (1.5 hours), 22.5 nM; in test [21] (3 hours) it was 8.88 nM; in test [21] (4 hours) it was 7.31 nM; in test [21] (24 hours), 0.7 nM. Besides, the “Aiolos Y-constant” value in test [20] (0.75 hours) was determined as 54; in test [20] (1 hour), 37; in test [20] (1.5 hours), 15; in [20] (3 hours) it was 3.5; in [20] (4 hours), 3.5; in [20] (24 hours), 3.8. For the same compound, the IC50 came to 32 nM in test [18] (Homo sapiens, 120 h, SU-DHL-4, 5-day assay, n = 6) and 10.2 ± 1 µM in [23]. Further, the “antiproliferative activity (in words)” value in test [18] is listed as “Potent antiproliferative activity”. The “Ikaros Y-constant” value in test [21] (0.75 hours) was determined as 47.0; in [21] (1 hour), 34.4; in test [21] (1.5 hours) it was 15.3; in test [21] (3 hours), 7.3; in test [21] (4 hours) it was 5.5; in test [21] (24 hours), 2.4. For the same compound, in test [22], the “expression of Aiolos, Ikaros, and ZFP91” value is reported as “decreased expression”.
